The source of these data is patent US10988478B1, “Pyrazolo[1,5a]pyrimidine derivatives as IRAK4 modulators” (Genentech, Inc., priority 2015, dated 2021).

The target of the experiment is human IRAK4 (Homo sapiens (Human), UniProt Q9NWZ3). Description: IRAK4 kinase inhibition, Transcreener fluorescence polarization ADP assay. The class given is biochemical. The settings on record: recombinant full-length His6-IRAK4; 125 uM ATP; 90 min; Ki computed using ATP Km 642 uM. The procedure: Compounds were assayed for inhibition of human IRAK4 and IRAK1 catalytic activity using recombinant enzyme produced from insect cells. Full-length IRAK4 protein, carrying an N-terminal His6-Tag, was obtained from Life Technologies (Carlsbad, Calif., USA). The IRAK1 construct was produced internally and was comprised of IRAK1 residues Arg194 to Ser712, preceded by an NH2-terminal His6 tag and the coding sequence for glutathione-S-transferase.
human IRAK4, sequence (Q9NWZ3 whole entry, the tested form may be a part): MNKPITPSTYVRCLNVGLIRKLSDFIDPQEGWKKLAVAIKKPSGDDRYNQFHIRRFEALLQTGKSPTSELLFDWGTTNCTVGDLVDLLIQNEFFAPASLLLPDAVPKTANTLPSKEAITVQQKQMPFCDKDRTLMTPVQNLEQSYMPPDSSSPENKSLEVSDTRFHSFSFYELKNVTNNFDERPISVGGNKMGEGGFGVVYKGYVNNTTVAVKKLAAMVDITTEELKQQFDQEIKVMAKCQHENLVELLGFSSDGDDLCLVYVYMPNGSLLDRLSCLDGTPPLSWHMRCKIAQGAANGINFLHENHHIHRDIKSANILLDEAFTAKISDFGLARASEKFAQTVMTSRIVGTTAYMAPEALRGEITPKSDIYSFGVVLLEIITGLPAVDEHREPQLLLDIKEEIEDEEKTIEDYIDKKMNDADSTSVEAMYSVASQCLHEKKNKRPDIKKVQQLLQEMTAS
With `CNC[C@H]1OC[C@H](c2cc3c(cc2NC(=O)c2cnn4cccnc24)CC(C)(C)O3)CO1` [Example 3, Trans-N-[2,2-dimethyl-6-[2-(methylaminomethyl)-1,3-dioxan-5-yl]-3H-benzofuran-5-yl]pyrazolo[1,5-a]pyrimidine-3-carboxamide], the Ki was 150 nM.

As to `O=C(Nc1cc2c(cc1N1CCOCC1)C(=O)N([C@H]1CCOC[C@@H]1F)C2)c1cnn2cccnc12` [Example 399, N-[2-[(3R,4S)-3-Fluorotetrahydropyran-4-yl]-6-morpholino-1-oxo-isoindolin-5-yl]pyrazolo[1,5-a]pyrimidine-3-carboxamide], the inhibition constant (Ki) is 5 nM.

Take `CN1Cc2cc(NC(=O)c3cnn4cccnc34)c(N3CCOCC3)cc2S1(=O)=O` [Example 385, N-(2-methyl-6-morpholino-1,1-dioxo-3H-1,2-benzothiazol-5-yl)pyrazolo[1,5-a]pyrimidine-3-carboxamide]: the Ki worked out at 19 nM.

`C[C@]1(CO)Cc2cc(NC(=O)c3cnn4cccnc34)c(C(F)F)cc2O1` [Example 74, N-[(2R)-6-(difluoromethyl)-2-(hydroxymethyl)-2-methyl-3H-benzofuran-5-yl]pyrazolo[1,5-a]pyrimidine-3-carboxamide]: the Ki is 750 nM.

“N-[2,2-Dimethyl-6-[(5-methyl-1H-pyrazol-3-yl)methoxy]-3H-benzofuran-5-yl]pyrazolo[1,5-a]pyrimidine-3-carboxamide [Example 543]”: the Ki is 140 nM.

In the case of `Cc1nnc(CN2CCN(c3cc4c(cc3NC(=O)c3cnn5cccnc35)CC(C)(C)O4)CC2)o1` [Example 463, N-(2,2-dimethyl-6-(4-((5-methyl-1,3,4-oxadiazol-2-yl)methyl)piperazin-1-yl)-2,3-dihydrobenzofuran-5-yl)pyrazolo[1,5-a]pyrimidine-3-carboxamide], the inhibitory constant (Ki) turned out to be 25 nM.

As to `C[C@@]1(CO)Cc2cc(NC(=O)c3cnn4cccnc34)c(N3CCC4(CCOC4)CC3)cc2O1` [Example 126, (S)—N-(2-(hydroxymethyl)-2-methyl-6-(2-oxa-8-azaspiro[4.5]decan-8-yl)-2,3-dihydrobenzofuran-5-yl)pyrazolo[1,5-a]pyrimidine-3-carboxamide], the inhibition constant (Ki) was 5.7 nM.

For the compound `CN1CCN(c2cc3c(cc2NC(=O)c2cnn4cccnc24)CC(C)(C)O3)CC(O)C1` (stereo not shown) [Example 224, N-[6-(6-hydroxy-4-methyl-1,4-diazepan-1-yl)-2,2-dimethyl-3H-benzofuran-5-yl]pyrazolo[1,5-a]pyrimidine-3-carboxamide], the Ki was 330 nM.

For `C[C@@]1(CO)Cc2cc(NC(=O)c3cnn4cccnc34)c(N3CCC(C4(O)CC4)CC3)cc2O1` [Example 342, N-[(2S)-6-[4-(1-hydroxycyclopropyl)-1-piperidyl]-2-(hydroxymethyl)-2-methyl-3H-benzofuran-5-yl]pyrazolo[1,5-a]pyrimidine-3-carboxamide], the Ki is 3.9 nM.

Take `CC1(C)Cc2cc(NC(=O)c3cnn4cccnc34)c(N3CC4CCOC4C3)cc2O1` (stereo not shown) [Example 234, N-(6-(Hexahydro-5H-furo[2,3-c]pyrrol-5-yl)-2,2-dimethyl-2,3-dihydrobenzofuran-5-yl)pyrazolo[1,5-a]pyrimidine-3-carboxamide]: the Ki amounted to 33 nM.

As to `Cn1cc(COc2cc3c(cc2NC(=O)c2cnn4cccnc24)C[C@](C)(O)CO3)cn1` [Example 431, (S)-N-(3-hydroxy-3-methyl-7-((1-methyl-1H-pyrazol-4-yl)methoxy)chroman-6-yl)pyrazolo[1,5-a]pyrimidine-3-carboxamide], the inhibition constant Ki was 20 nM.

Consider `CSCC[C@@]1(C)Cc2cc(NC(=O)c3cnn4cccnc34)c(N3CCOCC3)cc2O1` [Example 444, (R)—N-(2-methyl-2-(2-(methylthio)ethyl)-6-morpholino-2,3-dihydrobenzofuran-5-yl)pyrazolo[1,5-a]pyrimidine-3-carboxamide], for which the Ki was found to be 2.8 nM.

With `C[C@@H](CN1Cc2cc(NC(=O)c3cnn4cccnc34)c(N3CCOCC3)cc2C1=O)N1CCOCC1` [Example 551, N-[6-morpholino-2-[(2S)-2-morpholinopropyl]-1-oxo-isoindolin-5-yl]pyrazolo[1,5-a]pyrimidine-3-carboxamide], the Ki was determined as 2.9 nM.

For the compound `Cc1nc(CN2CCN(c3cc4c(cc3NC(=O)c3cnn5cccnc35)CC(C)(C)O4)CC2)no1` [Example 461, N-(2,2-dimethyl-6-(4-((5-methyl-1,2,4-oxadiazol-3-yl)methyl)piperazin-1-yl)-2,3-dihydrobenzofuran-5-yl)pyrazolo[1,5-a]pyrimidine-3-carboxamide], the inhibition constant Ki stood at 29 nM.

With `CC1(C)Cc2cc(NC(=O)c3cnn4cc(C(F)(F)F)cnc34)c(N3CCOCC3)cc2O1` [Example 69, N-(2,2-Dimethyl-6-morpholino-2,3-dihydrobenzofuran-5-yl)-6-(trifluoromethyl)pyrazolo[1,5-a]pyrimidine-3-carboxamide], the Ki is 27 nM.

For `C[C@@]1(CO)Cc2cc(NC(=O)c3cnn4cccnc34)c(OC(F)(F)F)cc2O1` [Example 172, (S)—N-(2-(hydroxymethyl)-2-methyl-6-(trifluoromethoxy)-2,3-dihydrobenzofuran-5-yl)pyrazolo[1,5-a]pyrimidine-3-carboxamide], the inhibition constant Ki was 16 nM.

For `C[C@]1(CO)Cc2cc(NC(=O)c3cnn4cccnc34)c(N3Cc4cccnc4C3)cc2O1` (single isomer, unassigned) [Example 419], the Ki worked out at 9 nM.

Turning to `O=C(Nc1cc2c(cc1N1CCN(CC(F)F)CC1)C(=O)N(CC(F)(F)F)C2)c1cnn2cccnc12` [Example 266, N-[6-[4-(2,2-Difluoroethyl)piperazin-1-yl]-1-oxo-2-(2,2,2-trifluoroethyl)isoindolin-5-yl]pyrazolo[1,5-a]pyrimidine-3-carboxamide], the Ki was determined as 9 nM.

Regarding `CC1(C)Cc2cc(NC(=O)c3cnn4cccnc34)c(N3CCCC(F)(F)C3)cc2O1` [Example 196, N-(6-(3,3-difluoropiperidin-1-yl)-2,2-dimethyl-2,3-dihydrobenzofuran-5-yl)pyrazolo[1,5-a]pyrimidine-3-carboxamide], the Ki worked out at 13 nM.

As to `CC1(C)Cc2cc(NC(=O)c3cnn4cccnc34)c(N3CCC(O)C(F)C3)cc2O1` (stereo not shown) [Example 115, N-(6-(3-Fluoro-4-hydroxypiperidin-1-yl)-2,2-dimethyl-2,3-dihydrobenzofuran-5-yl)pyrazolo[1,5-a]pyrimidine-3-carboxamide], the inhibitory constant (Ki) was 9.5 nM.

In the case of `CC1(C)Cc2cc(NC(=O)c3cnn4cccnc34)c(OCC3CC3)cc2O1` [Example 298, N-(6-(Cyclopropylmethoxy)-2,2-dimethyl-2,3-dihydrobenzofuran-5-yl)pyrazolo[1,5-α]pyrimidine-3-carboxamide], the Ki is 7 nM.

On to `CC(C)(O)[C@H](F)CN1Cc2cc(NC(=O)c3cnn4cccnc34)c(C3CC3)cc2C1=O` [Example 487, N-[6-Cyclopropyl-2-[(2R)-2-fluoro-3-hydroxy-3-methyl-butyl]-1-oxo-isoindolin-5-yl]pyrazolo[1,5-a]pyrimidine-3-carboxamide], for which the Ki was 0.61 nM.

For the compound `CC1(C)Cc2cc(NC(=O)c3cnn4cccnc34)c(N3CC(O)C(F)(F)C3)cc2O1` (stereo not shown) [Example 68, N-(6-(3,3-Difluoro-4-hydroxypyrrolidin-1-yl)-2,2-dimethyl-2,3-dihydrobenzofuran-5-yl)pyrazolo[1,5-a]pyrimidine-3-carboxamide], the Ki turned out to be 9.8 nM.

On to `CC1(C)Cc2cc(NC(=O)c3cnn4cccnc34)c(N3CCC4(CC3)CN(CC(F)(F)F)C4)cc2O1` [Example 249, N-(2,2-dimethyl-6-(2-(2,2,2-trifluoroethyl)-2,7-diazaspiro[3.5]nonan-7-yl)-2,3-dihydrobenzofuran-5-yl)pyrazolo[1,5-a]pyrimidine-3-carboxamide], for which the inhibitory constant (Ki) amounted to 47 nM.

On to `CC(C)(O)[C@]1(C)Cc2cc(NC(=O)c3cnn4cccnc34)c(O[C@H]3CC[C@H](O)CC3)cc2O1` [Example 314, N-[(2S)-6-(trans-4-Hydroxycyclo-hexoxy)-2-(1-hydroxy-1-methyl-ethyl)-2-methyl-3H-benzofuran-5-yl]pyrazolo[1,5-a]pyrimidine-3-carboxamide], for which the inhibition constant Ki was determined as 65 nM.

With `CC1(C)Cc2cc(NC(=O)c3cnn4cccnc34)c(N3CCC(C)(C(N)=O)CC3)cc2O1` [Example 184, N-[6-(4-carbamoyl-4-methyl-1-piperidyl)-2,2-dimethyl-3H-benzofuran-5-yl]pyrazolo[1,5-a]pyrimidine-3-carboxamide], the inhibitory constant (Ki) is 3.1 nM.

Consider `CC[C@@]1(C)Cc2cc(NC(=O)c3cnn4cccnc34)c(N3CCOCC3)cc2O1` [Example 96, (S)—N-(2-ethyl-2-methyl-6-morpholino-2,3-dihydrobenzofuran-5-yl)pyrazolo[1,5-a]pyrimidine-3-carboxamide], for which the inhibition constant (Ki) amounted to 14 nM.

For the compound `C[C@@]1(O)CCCN(c2cc3c(cc2NC(=O)c2cnn4cccnc24)C[C@](C)(CO)O3)CC1` [Example 329, N-((R)-6-((R)-4-hydroxy-4-methylazepan-1-yl)-2-(hydroxymethyl)-2-methyl-2,3-dihydrobenzofuran-5-yl)pyrazolo[1,5-a]pyrimidine-3-carboxamide], the Ki worked out at 6 nM.
